From patent US9556139B2, “6-substituted phenoxychroman carboxylic acid derivatives” (Array BioPharma Inc., priority 2008, dated 2017)
Read-outs that look alike come from different tables or passages of the source.

Target: human DP2 (Homo sapiens (Human), UniProt Q9Y5Y4)
Experiment: DP-2 Binding Inhibition Assay (3H-PGD2 binding to membranes of K562 cells expressing DP2)
Conditions: inhibition of 3H-PGD2 binding
Method: DP-2 Binding Inhibition Assay
The coding sequence of human DP2 was introduced into the human Leukemic cell line K562 by electroporation and stable clones expressing DP2 were obtained by limiting dilution followed by cell surface staining with a rat monoclonal antibody specific for human DP2. Membranes were prepared from one of these DP2 expressing clones and used to determine the ability of compounds of the present invention to inhibit binding of prostaglandin D2 (PGD2) to its receptor DP2 in the presence of one or more of the following serum protein concentrations, 0.1% BSA, 1% HSA or 4% HSA, by the following procedure. Membranes (1.25 μg/well for 0.1% BSA and 6 μg/well for 1% or 4% HSA) were mixed with ^3H-labeled PGD2 and various concentrations of test compounds in 150 μL of binding buffer (50 mM Tris-HCl, pH 7.4, 40 mM MgCl2, 0.1% bovine serum albumin, 0.1% NaN3) in 96-well U-bottom polypropylene plates. After incubation for 60 minutes at room temperature, the assay was transferred to a filtration plate (#MAFB; Millipore Corporation, Bedford, Mass.), and washed three times with binding buffer. Radioactivity was measured by a scintillation counter (TopCount; PerkinElmer Life Sciences, Boston, Mass.). Nonspecific binding was determined by incubations in the presence of 1 μM unlabeled PGD2 or 5 μM of a known DP2 antagonist. EC50 values for inhibition of binding were determined for each compound tested from the inflexion point of a standard 4-parameter logistical curve fitted to the values obtained.

[1] = read-out: EC50 (nM) 4% HSA, 4% HSA
[2] = read-out: EC50 (Nm) 1% HSA, 1% HSA

human DP2, sequence (Q9Y5Y4 whole entry): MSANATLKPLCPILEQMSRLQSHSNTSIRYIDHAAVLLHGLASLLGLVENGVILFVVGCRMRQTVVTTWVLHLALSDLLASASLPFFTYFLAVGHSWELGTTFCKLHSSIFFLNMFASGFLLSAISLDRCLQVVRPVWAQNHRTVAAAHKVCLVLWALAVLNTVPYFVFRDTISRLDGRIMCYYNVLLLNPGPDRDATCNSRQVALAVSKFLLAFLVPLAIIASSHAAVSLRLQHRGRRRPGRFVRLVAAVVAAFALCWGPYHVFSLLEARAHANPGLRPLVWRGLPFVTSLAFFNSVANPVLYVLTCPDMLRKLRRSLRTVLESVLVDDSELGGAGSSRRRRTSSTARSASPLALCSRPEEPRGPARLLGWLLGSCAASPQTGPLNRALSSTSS

| Structure (SMILES) | EC50 [1] [nM] | further results |
| --- | --- | --- |
| O=C(NCCc1cccc(Oc2ccccc2)c1)c1ccc(Oc2cc3c(cc2Cl)C(C(=O)O)CCO3)cc1 (centres unmarked) [Example 149, Sodium 6-chloro-7-(4-(3-phenoxyphenethylcarbamoyl)phenoxy)chroman-4-carboxylate] | 280 | – |
| O=C(NCCc1ccc(Br)cc1)c1ccc(Oc2cc3c(cc2Cl)C(C(=O)O)CCO3)cc1 (centres unmarked) [Example 23, Sodium 7-(4-(4-bromophenethylcarbamoyl)phenoxy)-6-chlorochroman-4-carboxylate] | 327 | – |
| Cc1ccc(-c2cccc(NC(=O)c3ccc(Oc4cc5c(cc4C#N)C(C(=O)O)CCO5)cc3)c2)cc1C (centres unmarked) [Example 66, 6-Cyano-7-(4-(3′,4′-dimethylbiphenyl-3-ylcarbamoyl)phenoxy)chroman-4-carboxylic acid] | 68.2 | – |
| O=C(NCCC1CC1)c1ccc(Oc2cc3c(cc2Cl)C(C(=O)O)CCO3)cc1 (centres unmarked) [Example 25, Sodium 6-chloro-7-(4-(2-cyclopropylethylcarbamoyl)phenoxy)chroman-4-carboxylate] | 3330 | – |
| O=C(NCCc1ccccc1Oc1ccccc1)c1ccc(Oc2cc3c(cc2Cl)C(C(=O)O)CCO3)cc1 (centres unmarked) [Example 65, Sodium 6-chloro-7-(4-(2-phenoxyphenethylcarbamoyl)phenoxy)chroman-4-carboxylate] | 80.4 | – |
| O=C(NCCc1ccccc1-c1ccccc1)c1ccc(Oc2cc3c(cc2Cl)C(C(=O)O)CCO3)cc1 (centres unmarked) [Example 92, Sodium 7-(4-(2-(biphenyl-2-yl)ethylcarbamoyl)phenoxy)-6-chlorochroman-4-carboxylate] | 111 | – |
| O=C(NCCc1ccc(C(F)(F)F)cc1C1CC1)c1ccc(Oc2cc3c(cc2Cl)C(C(=O)O)CCO3)cc1 (centres unmarked) [Example 232, 6-chloro-7-(4-(2-cyclopropyl-4-(trifluoromethyl)phenethylcarbamoyl)phenoxy) chroman-4-carboxylic acid] | 46.5 | – |
| Cc1ccc(SCCNC(=O)c2ccc(Oc3cc4c(cc3Cl)C(C(=O)O)CCO4)cc2)cc1 (centres unmarked) [Example 112, Sodium 6-chloro-7-(4-(2-(p-tolylthio)ethylcarbamoyl)phenoxy)chroman-4-carboxylate] | 4190 | – |
| COc1cc(C2CC2)ccc1CCNC(=O)c1ccc(Oc2cc3c(cc2Cl)C(C(=O)O)CCO3)cc1 (centres unmarked) [Example 36, Sodium 6-chloro-7-(4-(4-cyclopropyl-2-methoxyphenethylcarbamoyl)phenoxy)chroman-4-carboxylate] | 93 | EC50 [2]: 17.3 nM |
| O=C(NCCCCc1ccc(Cl)cc1)c1ccc(Oc2cc3c(cc2Cl)C(C(=O)O)CCO3)cc1 (centres unmarked) [Example 15, Sodium 6-chloro-7-(4-(4-(4-chlorophenyl)butylcarbamoyl)phenoxy)chroman-4-carboxylate] | 746 | – |
| O=C(NCCc1cc(Cl)cc(Cl)c1)c1ccc(Oc2cc3c(cc2Cl)C(C(=O)O)CCO3)cc1 (centres unmarked) [Example 148, Sodium 6-chloro-7-(4-(3,5-dichlorophenethylcarbamoyl)phenoxy)chroman-4-carboxylate] | 196 | – |
| O=C(NCC1Cc2ccccc2C1)c1ccc(Oc2cc3c(cc2Cl)C(C(=O)O)CCO3)cc1 (centres unmarked) [Example 111, Sodium 6-chloro-7-(4-((2,3-dihydro-1H-inden-2-yl)methylcarbamoyl)phenoxy)chroman-4-carboxylate] | 174 | – |
| Cc1cc(C(=O)NCCc2ccc(Cl)cc2)ccc1Oc1cc2c(cc1C#N)C(C(=O)O)CCO2 (centres unmarked) [Example 129, 7-(4-(4-Chlorophenethylcarbamoyl)-2-methylphenoxy)-6-cyanochroman-4-carboxylic acid] | – | EC50 [2]: 21.9 nM |
| O=C(NCCCCc1cccc(Cl)c1)c1ccc(Oc2cc3c(cc2Cl)C(C(=O)O)CCO3)cc1 (centres unmarked) [Example 14, Sodium 6-chloro-7-(4-(4-(3-chlorophenyl)butylcarbamoyl)phenoxy)chroman-4-carboxylate] | 824 | – |
| O=C(NCCc1cccc2ccccc12)c1ccc(Oc2cc3c(cc2Cl)C(C(=O)O)CCO3)cc1 (centres unmarked) [Example 86, Sodium 6-chloro-7-(4-(2-(naphthalen-1-yl)ethylcarbamoyl)phenoxy)chroman-4-carboxylate] | 126 | – |
| O=C(NCCc1ccc(OC(F)F)cc1)c1ccc(Oc2cc3c(cc2Cl)C(C(=O)O)CCO3)cc1 (centres unmarked) [Example 223, 6-chloro-7-(4-(4-(difluoromethoxy)phenethylcarbamoyl)phenoxy) chroman-4-carboxylic acid] | 209 | – |
| N#Cc1cc2c(cc1Oc1ccc(C(=O)Nc3ccc(Cl)c(Cl)c3)cc1)OCCC2C(=O)O (centres unmarked) [Example 8, 6-Cyano-7-(4-(3,4-dichlorophenylcarbamoyl)phenoxy)chroman-4-carboxylic acid] | – | EC50 [2]: 16 nM |

| Structure (SMILES) | EC50 [1] [nM] | further results |
| --- | --- | --- |
| O=C(NCCc1cccc(F)c1)c1ccc(Oc2cc3c(cc2Cl)C(C(=O)O)CCO3)cc1 (centres unmarked) [Example 145, Sodium 6-chloro-7-(4-(3-fluorophenethylcarbamoyl)phenoxy)chroman-4-carboxylate] | 655 | – |
| O=C(NC1CCN(c2cccc(C(F)(F)F)c2)C1)c1ccc(Oc2cc3c(cc2Cl)C(C(=O)O)CCO3)cc1 (centres unmarked) [Example 122, Sodium 6-chloro-7-(4-(1-(3-(trifluoromethyl)phenyl)pyrrolidin-3-ylcarbamoyl)phenoxy)chroman-4-carboxylate] | 242 | – |
| CC(C)Oc1cccc(NC(=O)c2ccc(Oc3cc4c(cc3C#N)C(C(=O)O)CCO4)cc2)c1 (centres unmarked) [Example 135, 6-Cyano-7-(4-(3-isopropoxyphenylcarbamoyl)phenoxy)chroman-4-carboxylic acid] | 205 | – |
| N#Cc1cc2c(cc1Oc1ccc(C(=O)NCCc3ccc4ccccc4c3)cc1)OCCC2C(=O)O (centres unmarked) [Example 56, 6-Cyano-7-(4-(2-(naphthalen-2-yl)ethylcarbamoyl)phenoxy)chroman-4-carboxylic acid] | – | EC50 [2]: 14.2 nM |
| O=C(NC1CCC(c2ccc(Cl)c(Cl)c2)C1)c1ccc(Oc2cc3c(cc2Cl)C(C(=O)O)CCO3)cc1 (centres unmarked) [Example 173, Sodium 6-chloro-7-(4-(3-(3,4-dichlorophenyl)cyclopentylcarbamoyl)phenoxy)chroman-4-carboxylate] | 327 | – |
| N#Cc1cc2c(cc1Oc1ccc(C(=O)Nc3ccc(C(F)(F)F)cc3)cc1)OCCC2C(=O)O (centres unmarked) [Example 75, 6-Cyano-7-(4-(4-(trifluoromethyl)phenylcarbamoyl)phenoxy)chroman-4-carboxylic acid] | – | EC50 [2]: 11.9 nM |
| N#Cc1cc2c(cc1Oc1ccc(C(=O)NCc3cccc4ccccc34)cc1)OCCC2C(=O)O (centres unmarked) [Example 54, 6-Cyano-7-(4-(naphthalen-1-ylmethylcarbamoyl)phenoxy)chroman-4-carboxylic acid] | – | EC50 [2]: 109 nM |
| O=C(NC1CCC(c2cccc(Cl)c2)C1)c1ccc(Oc2cc3c(cc2Cl)C(C(=O)O)CCO3)cc1 (centres unmarked) [Example 167, 6-Chloro-7-(4-(3-(3-chlorophenyl)cyclopentylcarbamoyl)phenoxy)chroman-4-carboxylic acid] | 179 | – |
| CSc1ccccc1CCNC(=O)c1ccc(Oc2cc3c(cc2Cl)C(C(=O)O)CCO3)cc1 (centres unmarked) [Example 117, Sodium 6-chloro-7-(4-(2-(methylthio)phenethylcarbamoyl)phenoxy)chroman-4-carboxylate] | 246 | – |
| Cc1cc(C(=O)NCCc2ccc(Cl)cc2)ccc1Oc1cc2c(cc1Cl)C(C(=O)O)CCO2 (centres unmarked) [Example 181, Sodium 6-chloro-7-(4-(4-chlorophenethylcarbamoyl)-2-methylphenoxy)chroman-4-carboxylate] | 331 | – |
| COc1cc(F)ccc1CCNC(=O)c1ccc(Oc2cc3c(cc2Cl)C(C(=O)O)CCO3)cc1 (centres unmarked) [Example 101, Sodium 6-chloro-7-(4-(4-fluoro-2-methoxyphenethylcarbamoyl)phenoxy)chroman-4-carboxylate] | 292 | – |
| O=C(NCCc1ccc(-c2ccccc2Cl)cc1)c1ccc(Oc2cc3c(cc2Cl)C(C(=O)O)CCO3)cc1 (centres unmarked) [Example 26, Sodium 6-chloro-7-(4-(2-(2′-chlorobiphenyl-4-yl)ethylcarbamoyl)phenoxy)chroman-4-carboxylate] | 160 | – |
| O=C(NC1CCC(c2ccccc2)CC1)c1ccc(Oc2cc3c(cc2Cl)C(C(=O)O)CCO3)cc1 (single isomer, unassigned) [Example 155 peak 1, 6-chloro-7-(4-(4-phenylcyclohexylcarbamoyl)phenoxy)chroman-4-carboxylic acid, isomer 1] | – | EC50 (EC50 (nM) 4% HSA, 4% HSA): 399 nM |
| O=C(NCCC1CCCCC1)c1ccc(Oc2cc3c(cc2Cl)C(C(=O)O)CCO3)cc1 (centres unmarked) [Example 180, Sodium 6-chloro-7-(4-(2-cyclohexylethylcarbamoyl)phenoxy)chroman-4-carboxylate] | 407 | – |
| N#Cc1cc2c(cc1Oc1ccc(C(=O)Nc3ccc(Cl)cc3)cc1)OCCC2C(=O)O (centres unmarked) [Example 74, 7-(4-(4-Chlorophenylcarbamoyl)phenoxy)-6-cyanochroman-4-carboxylic acid] | – | EC50 [2]: 23.3 nM |
| Cc1ccc(C2CCC(NC(=O)c3ccc(Oc4cc5c(cc4Cl)C(C(=O)O)CCO5)cc3)C2)cc1 (centres unmarked) [Example 166, 6-Chloro-7-(4-(3-p-tolylcyclopentylcarbamoyl)phenoxy)chroman-4-carboxylic acid] | 272 | – |
| O=C(N[C@H]1CCCN(c2cccc(Cl)c2)C1)c1ccc(Oc2cc3c(cc2Cl)C(C(=O)O)CCO3)cc1 (stereo partly drawn) [Example 125, Sodium 6-chloro-7-(4-((S)-1-(3-chlorophenyl)piperidin-3-ylcarbamoyl)phenoxy)chroman-4-carboxylate] | 421 | – |
